Measurements as given in PubChem BioAssay (NCI).
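Interpolation was linear, between the two tested concentrations surrounding the appropriate level; five concentrations were tested over 48 hours in 96-well plates. At the TGI there is no net growth.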

Legend:
Experiment in all cases: NCI-60 cell line screen, 48 h
HL-60(TB) leukemia = tested on: HL-60(TB) leukemia
MDA-MB-435 = tested on: MDA-MB-435
HCC-2998 colon = tested on: HCC-2998 colon
COLO 205 colon = tested on: COLO 205 colon
HCT-116 colon = tested on: HCT-116 colon
MDA-N = tested on: MDA-N
SK-MEL-28 melanoma = tested on: SK-MEL-28 melanoma
UO-31 renal = tested on: UO-31 renal
IGROV1 ovarian = tested on: IGROV1 ovarian
HCT-15 colon = tested on: HCT-15 colon
MDA-MB-231 breast = tested on: MDA-MB-231 breast
RXF 393 renal = tested on: RXF 393 renal
CCRF-CEM leukemia = tested on: CCRF-CEM leukemia
NCI-H522 lung = tested on: NCI-H522 lung
DU-145 prostate = tested on: DU-145 prostate
OVCAR-3 ovarian = tested on: OVCAR-3 ovarian
SNB-19 CNS = tested on: SNB-19 CNS
K-562 leukemia = tested on: K-562 leukemia
T-47D breast = tested on: T-47D breast
A498 renal = tested on: A498 renal
NCI-H460 lung = tested on: NCI-H460 lung
NCI/ADR-RES ovarian = tested on: NCI/ADR-RES ovarian
U251 CNS = tested on: U251 CNS
OVCAR-4 ovarian = tested on: OVCAR-4 ovarian
CAKI-1 renal = tested on: CAKI-1 renal
KM12 colon = tested on: KM12 colon
MALME-3M melanoma = tested on: MALME-3M melanoma
NCI-H23 lung = tested on: NCI-H23 lung
HS 578T breast = tested on: HS 578T breast
RPMI-8226 leukemia = tested on: RPMI-8226 leukemia
SF-295 CNS = tested on: SF-295 CNS
SNB-75 CNS = tested on: SNB-75 CNS
SK-MEL-2 melanoma = tested on: SK-MEL-2 melanoma
MCF7 breast = tested on: MCF7 breast
M14 melanoma = tested on: M14 melanoma
SK-MEL-5 melanoma = tested on: SK-MEL-5 melanoma
SN12C renal = tested on: SN12C renal
OVCAR-5 ovarian = tested on: OVCAR-5 ovarian
HOP-62 NSCLC = tested on: HOP-62 NSCLC
SK-OV-3 ovarian = tested on: SK-OV-3 ovarian
PC-3 prostate = tested on: PC-3 prostate
SR leukemia = tested on: SR leukemia
NCI-H226 lung = tested on: NCI-H226 lung
BT-549 breast = tested on: BT-549 breast
UACC-62 melanoma = tested on: UACC-62 melanoma
OVCAR-8 ovarian = tested on: OVCAR-8 ovarian
LOX IMVI melanoma = tested on: LOX IMVI melanoma
SF-539 CNS = tested on: SF-539 CNS
SW-620 colon = tested on: SW-620 colon
SF-268 CNS = tested on: SF-268 CNS
ACHN renal = tested on: ACHN renal
A549 NSCLC = tested on: A549 NSCLC
MOLT-4 leukemia = tested on: MOLT-4 leukemia
HT29 colon = tested on: HT29 colon
TK-10 renal = tested on: TK-10 renal
786-0 renal = tested on: 786-0 renal
HOP-92 NSCLC = tested on: HOP-92 NSCLC
EKVX NSCLC = tested on: EKVX NSCLC
UACC-257 melanoma = tested on: UACC-257 melanoma

CN(C)c1ccc(N2C(=S)SC(=Nc3ccccc3)C2=Nc2ccccc2)cc1 was tested, and the TGI (HL-60(TB) leukemia) was greater than 100 µM, the TGI (MDA-MB-435) was greater than 100 µM and the TGI (HCC-2998 colon) was greater than 100 µM. For the same compound, the TGI (COLO 205 colon) was greater than 100 µM, the TGI (HCT-116 colon) was greater than 100 µM and the TGI (MDA-N) was greater than 100 µM. The TGI (SK-MEL-28 melanoma) was greater than 100 µM, the TGI (UO-31 renal) was greater than 100 µM and the TGI (IGROV1 ovarian) was greater than 100 µM. For the same compound, the TGI (HCT-15 colon) was greater than 100 µM, the TGI (MDA-MB-231 breast) was greater than 100 µM and the TGI (RXF 393 renal) was greater than 100 µM. It also gave a TGI (CCRF-CEM leukemia) greater than 100 µM, a TGI (NCI-H522 lung) greater than 100 µM and a TGI (DU-145 prostate) greater than 100 µM. It also gave a TGI (OVCAR-3 ovarian) greater than 100 µM, a TGI (SNB-19 CNS) greater than 100 µM and a TGI (K-562 leukemia) greater than 100 µM. The TGI (T-47D breast) was greater than 100 µM, the TGI (A498 renal) was greater than 100 µM and the TGI (NCI-H460 lung) was greater than 100 µM. For the same compound, the TGI (NCI/ADR-RES ovarian) was greater than 100 µM, the TGI (U251 CNS) was greater than 100 µM and the TGI (OVCAR-4 ovarian) was greater than 100 µM. The TGI (CAKI-1 renal) was greater than 100 µM, the TGI (KM12 colon) was greater than 100 µM and the TGI (MALME-3M melanoma) was greater than 100 µM. The TGI (NCI-H23 lung) was greater than 100 µM, the TGI (HS 578T breast) was greater than 100 µM and the TGI (RPMI-8226 leukemia) was greater than 100 µM. For the same compound, the TGI (SF-295 CNS) was greater than 100 µM, the TGI (SNB-75 CNS) was greater than 100 µM and the TGI (SK-MEL-2 melanoma) was greater than 100 µM. The TGI (MCF7 breast) was greater than 100 µM, the TGI (M14 melanoma) was greater than 100 µM and the TGI (SK-MEL-5 melanoma) was greater than 100 µM. For the same compound, the TGI (SN12C renal) was greater than 100 µM, the TGI (OVCAR-5 ovarian) was greater than 100 µM and the TGI (HOP-62 NSCLC) was greater than 100 µM. It also gave a TGI (SK-OV-3 ovarian) greater than 100 µM, a TGI (PC-3 prostate) greater than 100 µM and a TGI (SR leukemia) greater than 100 µM. The TGI (NCI-H226 lung) was greater than 100 µM, the TGI (BT-549 breast) was greater than 100 µM and the TGI (UACC-62 melanoma) was greater than 100 µM. It also gave a TGI (OVCAR-8 ovarian) greater than 100 µM.
With O=c1[nH]nc(Cc2ccccc2)n1/N=C/c1c[nH]c2ccccc12 the TGI (HL-60(TB) leukemia) was greater than 100 µM, the TGI (MDA-MB-435) was greater than 100 µM and the TGI (HCC-2998 colon) was greater than 100 µM. The TGI (COLO 205 colon) was greater than 100 µM, the TGI (HCT-116 colon) was greater than 100 µM and the TGI (LOX IMVI melanoma) was greater than 100 µM. The TGI (MDA-N) was greater than 100 µM, the TGI (SF-539 CNS) was greater than 100 µM and the TGI (SK-MEL-28 melanoma) was greater than 100 µM. It also gave a TGI (UO-31 renal) greater than 100 µM, a TGI (SW-620 colon) greater than 100 µM and a TGI (IGROV1 ovarian) greater than 100 µM. It also gave a TGI (HCT-15 colon) greater than 100 µM, a TGI (MDA-MB-231 breast) greater than 100 µM and a TGI (SF-268 CNS) of 88.1 µM. For the same compound, the TGI (CCRF-CEM leukemia) was greater than 100 µM, the TGI (ACHN renal) was greater than 100 µM and the TGI (A549 NSCLC) was greater than 100 µM. It also gave a TGI (MOLT-4 leukemia) greater than 100 µM, a TGI (NCI-H522 lung) greater than 100 µM and a TGI (DU-145 prostate) greater than 100 µM. For the same compound, the TGI (HT29 colon) was greater than 100 µM, the TGI (OVCAR-3 ovarian) was greater than 100 µM and the TGI (SNB-19 CNS) was greater than 100 µM. For the same compound, the TGI (K-562 leukemia) was greater than 100 µM, the TGI (T-47D breast) was greater than 100 µM and the TGI (A498 renal) was greater than 100 µM. It also gave a TGI (NCI-H460 lung) greater than 100 µM, a TGI (NCI/ADR-RES ovarian) greater than 100 µM and a TGI (U251 CNS) greater than 100 µM. The TGI (OVCAR-4 ovarian) was greater than 100 µM, the TGI (CAKI-1 renal) was 81.8 µM and the TGI (KM12 colon) was greater than 100 µM. For the same compound, the TGI (MALME-3M melanoma) was greater than 100 µM, the TGI (NCI-H23 lung) was greater than 100 µM and the TGI (HS 578T breast) was 79.4 µM. The TGI (RPMI-8226 leukemia) was greater than 100 µM, the TGI (SF-295 CNS) was greater than 100 µM and the TGI (TK-10 renal) was greater than 100 µM. It also gave a TGI (SNB-75 CNS) of 51.3 µM, a TGI (786-0 renal) greater than 100 µM and a TGI (HOP-92 NSCLC) greater than 100 µM. It also gave a TGI (SK-MEL-2 melanoma) greater than 100 µM, a TGI (MCF7 breast) greater than 100 µM and a TGI (M14 melanoma) greater than 100 µM. For the same compound, the TGI (SK-MEL-5 melanoma) was greater than 100 µM, the TGI (SN12C renal) was greater than 100 µM and the TGI (OVCAR-5 ovarian) was greater than 100 µM. It also gave a TGI (HOP-62 NSCLC) greater than 100 µM, a TGI (SK-OV-3 ovarian) greater than 100 µM and a TGI (EKVX NSCLC) greater than 100 µM. It also gave a TGI (PC-3 prostate) greater than 100 µM, a TGI (SR leukemia) greater than 100 µM and a TGI (NCI-H226 lung) greater than 100 µM. For the same compound, the TGI (UACC-62 melanoma) was greater than 100 µM, the TGI (UACC-257 melanoma) was greater than 100 µM and the TGI (OVCAR-8 ovarian) was greater than 100 µM.
